Experimental data as given in the supplement of paper PMC4862054.

Experiments:
Settings in all cases: incubation time: 72 h
MDA-MB-453 [1] = test: normalised response (% of control), CellTiter-Glo; higher = more viable cells (100 = DMSO, 0 = benzethonium chloride kill control)
Protocol: (§1)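 DSRT, 72 h incubation, CellTox Green / CellTiter-Glo readout. Signal is normalised to DMSO and benzethonium chloride controls. Value is the normalised response at the highest dose.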

DU-4475 [2] = test: as above
Protocol: as §1

HDQ-P1 [3] = test: as above
Protocol: as §1

SK-BR-3 = test: as above
Protocol: as §1

MFM-223 [4] = test: as above
Protocol: as §1

MDA-MB-468 [5] = test: as above
Protocol: as §1

CAL-120 [6] = test: as above
Protocol: as §1

CAL-148 [7] = test: as above
Protocol: as §1

CAL-51 [8] = test: as above
Protocol: as §1

Hs578T [9] = test: as above
Protocol: as §1

MDA-MB-436 [10] = test: as above
Protocol: as §1

MCF-10A [11] = test: as above
Protocol: as §1

MDA-MB-231 [12] = test: as above
Protocol: as §1

BT-474 [13] = test: as above
Protocol: as §1

BT-549 [14] = test: as above
Protocol: as §1

HCC1937 [15] = test: as above
Protocol: as §1

HCC1599 [16] = test: as above
Protocol: as §1

CAL-85-1 [17] = test: as above
Protocol: as §1

HCC1143 [18] = test: as above
Protocol: as §1

MDA-MB-453 [19] = test: normalised response (% of control), CellTox Green; higher = less cell death (100 = DMSO, 0 = benzethonium chloride kill control)
Procedure, shortened: (§2)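 For each plate, 0.1 % DMSO was set to 100 and a positive kill control to 0. Breast cancer cell lines (20 µl suspension) were seeded into 384-well plates already holding compound at 5 concentrations in 10-fold steps over a 10,000-fold range chosen per compound, and incubated for 72 h. CellTox Green fluorescence at 485/520 nm was read before CellTiter-Glo luminescence, which followed 10 min at room temperature. Each value is the normalised signal at one concentration.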

DU-4475 [20] = test: as above
Procedure, shortened: as §2

HDQ-P1 [21] = test: as above
Procedure, shortened: as §2

MFM-223 [22] = test: as above
Procedure, shortened: as §2

MDA-MB-468 [23] = test: as above
Procedure, shortened: as §2

CAL-120 [24] = test: as above
Procedure, shortened: as §2

CAL-148 [25] = test: as above
Procedure, shortened: as §2

CAL-51 [26] = test: as above
Procedure, shortened: as §2

MDA-MB-436 [27] = test: as above
Procedure, shortened: as §2

MCF-10A [28] = test: as above
Procedure, shortened: as §2

MDA-MB-231 [29] = test: as above
Procedure, shortened: as §2

BT-474 [30] = test: as above
Procedure, shortened: as §2

BT-549 [31] = test: as above
Procedure, shortened: as §2

HCC1937 [32] = test: as above
Procedure, shortened: as §2

HCC1599 [33] = test: as above
Procedure, shortened: as §2

CAL-85-1 [34] = test: as above
Procedure, shortened: as §2

HCC1143 [35] = test: as above
Procedure, shortened: as §2

Hs578T [36] = test: as above
Procedure, shortened: as §2

Row | Compound | normalised response (MDA-MB-453 [1]) [%] | normalised response (DU-4475 [2]) [%] | normalised response (HDQ-P1 [3]) [%] | normalised response (SK-BR-3) [%] | normalised response (MFM-223 [4]) [%] | normalised response (MDA-MB-468 [5]) [%] | normalised response (CAL-120 [6]) [%] | normalised response (CAL-148 [7]) [%] | normalised response (CAL-51 [8]) [%] | normalised response (Hs578T [9]) [%] | normalised response (MDA-MB-436 [10]) [%] | normalised response (MCF-10A [11]) [%] | normalised response (MDA-MB-231 [12]) [%] | normalised response (BT-474 [13]) [%] | normalised response (BT-549 [14]) [%] | normalised response (HCC1937 [15]) [%] | normalised response (HCC1599 [16]) [%] | normalised response (CAL-85-1 [17]) [%] | normalised response (HCC1143 [18]) [%] | normalised response (MDA-MB-453 [19]) [%] | normalised response (DU-4475 [20]) [%] | normalised response (HDQ-P1 [21]) [%] | normalised response (MFM-223 [22]) [%] | normalised response (MDA-MB-468 [23]) [%] | normalised response (CAL-120 [24]) [%] | normalised response (CAL-148 [25]) [%] | normalised response (CAL-51 [26]) [%] | normalised response (MDA-MB-436 [27]) [%] | normalised response (MCF-10A [28]) [%] | normalised response (MDA-MB-231 [29]) [%] | normalised response (BT-474 [30]) [%] | normalised response (BT-549 [31]) [%] | normalised response (HCC1937 [32]) [%] | normalised response (HCC1599 [33]) [%] | normalised response (CAL-85-1 [34]) [%] | normalised response (HCC1143 [35]) [%] | normalised response (Hs578T [36]) [%]
1 | CC(C)(C)Cn1c(N)nc2ccc(-c3[nH]c(C(C)(C)C)nc3-c3ccc(F)cc3)nc21 (10000 nM) | 77.3 | 99.4 | 70.7 | 62.7 | 63.7 | 37 | 89.3 | 94.7 | 104 | 94.1 | 82.1 | 43.6 | 67.2 | 66.4 | 76.4 | 65.3 | 78.1 | 64.9 | 86.1 | 93.9 | 95.7 | 100 | 86.6 | 107 | 93.6 | 98.9 | 104 | 71.1 | 89.3 | 47.1 | 89.8 | 90.9 | 92.4 | 85.6 | 41.5 | 87.1 | 
2 | Cn1cc(C[C@@H](N)C(=O)O)c2ccccc21 [1-methyl-D-tryptophan] (5000 nM) | 91.4 | 92.9 | 111 | 93.2 | 92.5 | 96.7 | 101 | 85.7 | 107 | 97 | 95.1 | 97.4 | 95.7 | 96.4 | 97.8 | 99.5 | 87.9 | 98.3 | 102 | 99.9 | 96.5 | 60.4 | 103 | 53 | 99.4 | 105 | 102 | 93.1 | 90.3 | 99.5 | 99.7 | 90 | 106 | 98 | 106 | 124 | 101
3 | CC[C@H](CC#N)OC(=O)N[C@@H](C)c1cccc(NC(=O)Nc2ccc(-c3cnco3)c(OC)c2)c1 [AVN944] (10000 nM) | 62.3 | 15.7 | 42.3 | 37.1 | 49.7 | 30 | 50.6 | 41.4 | 19 | 35.4 | 38.1 | 58.9 | 47 | 48.8 | 27 | 42.2 | 33.4 | 38.4 | 31.5 | 107 | 89.2 | 94.6 | 100 | 124 | 102 | 67.1 | 78.9 | 97.9 | 85.2 | 110 | 96.4 | 88.5 | 96.6 | 97.1 | 101 | 105 | 48
4 | CCc1cnn2c(NCc3ccc[n+]([O-])c3)cc(N3CCCC[C@H]3CCO)nc12 [Dinaciclib] (1000 nM) | 20.6 | 21.8 | 23 | 2.06 | 11.5 | 6.62 | 38.1 | 67.5 | 14.3 | 17.1 | 19.3 | 21.3 | 6.98 | 20.2 | 14 | 27.8 | 12.3 | 8.86 | 19.3 | 88.2 | 90.4 | 48.4 | 42.2 | 31.8 | 80.6 | 46.3 | 71.8 | 86.5 | 47.1 | -18.6 | 88.3 | 81.4 | 83.6 | 74.5 | 4.91 | 88.2 | 36.3
